Columns and labels:
CDK4/Cyclin D = target: T1, CDK4/Cyclin D (Homo sapiens, UniProt P11802); assay: CDKACT4 biosensor fluorescence in MCF‐7 cell extracts; assay type: biochemical; conditions: incubation with cell extracts prepared with different concentrations of palbociclib, n = 5
T1 construct: Fluorescence changes of CDKACT4 biosensor incubated with MCF‐7 cell extracts; endogenous in cells; host or cells: MCF-7 breast cancer cell extracts
Method: We initially determined whether the CDKACT4 peptide biosensor that we synthesized was effective at monitoring CDK4 kinase activity in MCF‐7 breast cancer cell extracts.
FIGURE 2 Characterization and spectral stability of CPP30‐Lipo/CDKACT4. (A) Fluorescence changes of CDKACT4 biosensor incubated with MCF‐7 cell extracts (red), CDKACT4 alone (blue), and cell extracts alone (green) during 180 min (n = 5). (B) Relative fluorescence intensity of CDKACT4 biosensor incubated with MCF‐7 cell extracts was monitored over time after treatment with different concentrations of palbociclib (n = 5). (C) Relative fluorescence intensity of MCF‐7 cell extracts‐incubated CDKACT4 at 120 min post‐treated with different concentrations of palbociclib from (b) (n = 5, **p < 0.01). (D) Transmission electron microscopy (TEM) images of CPP30‐Lipo/CDKACT4. Scale bar = 200 nm. (E) Diameter distribution of CPP30‐Lipo/CDKACT4. (F, G) UV–vis absorption spectra (F) and fluorescence emission spectra (G) of water, 5‐TAMRA, CDKACT4, and CPP30‐Lipo/CDKACT4. (H, I) Changes in absorption and fluorescence spectra of CPP30‐Lipo/CDKACT4 during 96 h in water. The samples were stored at room temperature in the dark

[1] = tested on: CDK4 kinase activity in MCF‐7 cells; assay: Cell microplate fluorescence imaging with CPP30‐Lipo/CDKACT4; assay type: cell-based, human; conditions: n = 3; for reduction of fluorescence intensity: probe 12 h
Method: (§1) Cells (∼8 × 10^3 cells per well) were seeded in black 96‐well plates and incubated with CPP30‐Lipo/CDKACT4 for 12 h after siRNA transfection or treatment with graded concentrations of palbociclib (HY‐50767; Medchemexpress). Then, the cells were washed three times with PBS and refilled with fresh PBS. Cell fluorescence signals were immediately detected using the IVIS Lumina II imaging system (PerkinElmer).

[2] = tested on: CDK4 kinase activity in T‐47D cells; assay: Cell microplate fluorescence imaging with CPP30‐Lipo/CDKACT4 in T‐47D; assay type: cell-based, human; conditions: different concentrations of palbociclib, n=3
Method: as §1

[3] = tested on: pRb (S795) in MCF‐7 cells; assay: Western blot of pRb (S795); assay type: cell-based, human
Method: Cells or minced tumor tissues were washed three times with ice‐cold PBS and lysed in RIPA buffer containing protease inhibitor cocktail (Roche Molecular Systems) and phosphatase inhibitor cocktail (Bimake). Tissues were further ground using a glass homogenizer on ice. Protein concentrations were determined with a BCA kit (Solarbio). Subsequent steps were performed as recently described.[36]

MCF‐7 cells = assay: Cell cycle analysis (propidium iodide, flow cytometry); assay type: cell-based, human; conditions: MCF‐7, increasing concentration of palbociclib, n = 3
Method: Cells were harvested and fixed in 70% ethanol at 4 °C overnight. Then, the samples were incubated in a solution of 10 mg/ml RNase and 1 mg/ml propidium iodide (Yeasen Biotech) at 37 °C for 30 min in the dark. The DNA content was determined using flow cytometry (Becton, Dickinson & Co.).

MCF‐7 tumor xenografts = assay: In‐vivo fluorescence imaging, MRI and tumor analysis of MCF‐7 tumor xenografts; set-up: species or system BALB/c nude mice; conditions: for change of tumor/muscle (T/M) fluorescence signal ratio: 150 mg/kg daily oral gavage 7 days, pre vs post, average, n = 6
Method: For MCF‐7 tumor model establishment, 6–8‐week old female BALB/c nude mice purchased from Xiamen University Laboratory Animal Center were first subcutaneously implanted with 60‐day release 17β‐estradiol pellets (Innovative Research of America) in the right side of the neck. Three days later, 2 × 10^6 MCF‐7 cells were injected subcutaneously in 1:1 PBS:Matrigel (BioCoat) into the right leg of the nude mice. Tumors were measured by caliper two or three times per week.
When MCF‐7 tumors grew to a volume of 75–100 mm^3, the mice were randomly divided into two groups (n = 6) and given palbociclib (150 mg/kg diluted in […] sodium D‐lactate) or sterile water daily by oral gavage. Magnetic resonance imaging was performed before (0 days) and 7 days after treatment using a 9.4T BioSpec MicroMRI (Bruker), and fluorescence imaging was also performed using the IVIS Lumina II imaging system (PerkinElmer) at the observation time points after intravenous injection with CPP30‐Lipo/CDKACT4 (10 μl/g body weight, containing 30 μM CDKACT4). After imaging, tumor tissue was collected for IHC staining.
Tumors were fixed in 4% paraformaldehyde, embedded in paraffin, and cut into 4‐μm slices. Then, the sections were stained with rabbit monoclonal antibody to Rb (Phospho S795) (1:100 dilution, ab47474; Abcam) or Ki67 (1:500 dilution, 9449; CST). Finally, the sections were observed under an optical microscope.

CDK4 = tested on: CDK4; set-up: method as in PMID 31482107; conditions: for CDK4; cited from earlier work
Text: We next investigated whether CPP30‐Lipo/CDKACT4 could be used to monitor the inhibition by the CDK4 inhibitor palbociclib in living cells.

T1 sequence (P11802 2-303 limits assumed): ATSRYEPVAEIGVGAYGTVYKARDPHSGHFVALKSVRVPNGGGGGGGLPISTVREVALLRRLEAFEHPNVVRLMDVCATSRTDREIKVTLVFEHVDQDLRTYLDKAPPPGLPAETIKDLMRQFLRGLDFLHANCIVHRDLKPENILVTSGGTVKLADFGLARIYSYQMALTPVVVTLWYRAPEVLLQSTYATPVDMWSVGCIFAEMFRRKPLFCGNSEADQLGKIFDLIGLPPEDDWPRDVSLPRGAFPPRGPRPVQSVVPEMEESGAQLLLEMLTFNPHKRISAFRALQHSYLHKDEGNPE
T1 sequence (P24385 whole entry partner): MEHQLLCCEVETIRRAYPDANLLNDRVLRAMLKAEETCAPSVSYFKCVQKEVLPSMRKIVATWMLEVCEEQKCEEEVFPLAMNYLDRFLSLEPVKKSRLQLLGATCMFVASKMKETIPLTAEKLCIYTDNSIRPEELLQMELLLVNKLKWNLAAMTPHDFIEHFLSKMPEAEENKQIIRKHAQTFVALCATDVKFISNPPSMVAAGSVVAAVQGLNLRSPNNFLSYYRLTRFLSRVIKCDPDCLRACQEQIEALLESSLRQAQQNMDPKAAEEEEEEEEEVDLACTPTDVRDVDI

| fluorescence of the CDKACT4 peptide biosensor (CDK4/Cyclin D) | Structure (SMILES) | fluorescence intensity under a microscope ([1]; MCF‐7, confocal/fluorescence microscopy after incubation with probe) | reduction of fluorescence intensity ([1]; MCF‐7, inhibitor 10 nM) [%] | reduction of fluorescence intensity ([1]; MCF‐7, inhibitor 100 nM) [%] | reduction of fluorescence intensity ([1]; MCF‐7, inhibitor 1000 nM) [%] | fluorescence intensity of CPP30‐Lipo/CDKACT4 [2] | pRb (S795) protein level [3] | cells arrested in the G1 phase (MCF‐7 cells) | change of tumor/muscle (T/M) fluorescence signal ratio (MCF‐7 tumor xenografts; 12 h after caudal vein injection of probe) | change of tumor/muscle (T/M) fluorescence signal ratio (MCF‐7 tumor xenografts; 24 h after caudal vein injection of probe) | change of tumor/muscle (T/M) fluorescence signal ratio (MCF‐7 tumor xenografts; 48 h after caudal vein injection of probe) | longest diameter of the tumor by MRI (MCF‐7 tumor xenografts; 150 mg/kg daily, day 0 vs day 7, n = 6) | tumor growth (MCF‐7 tumor xenografts; after 14 days of treatment, n = 4) | percentage of cells positive for pRb in tumors (MCF‐7 tumor xenografts; baseline vs day 7, immunohistochemical staining pRb (S795)) | tumor volume versus control group (MCF‐7 tumor xenografts; during the 7 days of treatment, caliper) | ex vivo fluorescence intensity of tumors versus control group (MCF‐7 tumor xenografts; palbociclib 7 days, 48 h post‐injection of probe, n = 3, p < 0.05) | Ki‐67 staining in tumors (MCF‐7 tumor xenografts; palbociclib 7 days, immunohistochemical staining) | IC50 (CDK4) [nM] |
| --- | --- | --- | --- | --- | --- | --- | --- | --- | --- | --- | --- | --- | --- | --- | --- | --- | --- | --- |
| decreased in a dose‐dependent manner | CC(=O)c1c(C)c2cnc(Nc3ccc(N4CCNCC4)cn3)nc2n(C2CCCC2)c1=O [palbociclib] | significant dose‐dependent reduction | 3.17 | 44.70 | 60.67 | decreased with the increasing dose | dose‐dependent decrease | up to 86.39% | –18.86% | –18.69% | –18.49% | no significant change | significantly inhibited | clear reductions | no significant difference | significantly lower | substantially reduced | – |
| – | CCN1CCN(Cc2ccc(Nc3ncc(F)c(-c4cc(F)c5nc(C)n(C(C)C)c5c4)n3)nc2)CC1 [abemaciclib] | – | 14.37 | 50.13 | 81.35 | – | – | – | – | – | – | – | – | – | – | – | – | […] |

Source: publication PMC9187519, “In vivo visualization of fluorescence reflecting CDK4 activity in a breast cancer mouse model” (MedComm, 2022)
